Results: ChEMBL document CHEMBL4145637, “Libertellenones O-S and Eutypellenones A and B, Pimarane Diterpene Derivatives from the Arctic Fungus Eutypella sp. D-1” (J Nat Prod, 2018)
Active and inactive are the calls of the source. No cut-off for these calls is given here.

Key:
HeLa = assay: Cytotoxicity against human HeLa cells after 72 hrs by CCK8 assay; type: functional, cell-based
PANC-1 = assay: Cytotoxicity against human PANC1 cells after 72 hrs by CCK8 assay; type: functional, cell-based; conditions: PANC-1, 72 h
MCF7 = assay: Cytotoxicity against human MCF7 cells after 72 hrs by CCK8 assay; type: functional, cell-based; conditions: MCF7, 72 h
SW1990 = assay: Cytotoxicity against human SW1990 cells after 72 hrs by CCK8 assay; type: functional, cell-based; conditions: SW1990, 72 h
HCT-116 = assay: Cytotoxicity against human HCT116 cells after 72 hrs by CCK8 assay; type: functional, cell-based; conditions: HCT-116, 72 h
RAW264.7 = assay: Inhibition of LPS-induced nitric oxide production in […] RAW264.7 cells at 2.5 to 20 uM pretreated for 2 hrs followed by LPS-stimulation and measured after 20 hrs by Griess assay; type: functional, cell-based
HEK293 = assay: Inhibition of TNFalpha-stimulated NFkappaB (unknown origin) expressed in HEK293 cells pretreated for 2 hrs followed by TNFalpha stimulation and measured after 6 hrs by luciferase reporter gene assay; type: cell-based; conditions: Homo sapiens

## C=C[C@]1(C)C=C2C(=O)C(=O)[C@H]3[C@](C)(COC(=O)C(C)C)[C@H](OC(C)=O)C[C@H]4C[C@]43[C@@]2(O)CC1
HeLa
  IC50: > 50 µM
PANC-1
  IC50: > 50 µM
MCF7
  IC50: > 50 µM
SW1990
  IC50: > 50 µM
HCT-116
  IC50: 29.4 µM

## C=C[C@@]1(C)CCC2=C(C(=O)O[C@@H]3CC[C@@]4(C)COC(=O)[C@@H]4[C@]23C)[C@H]1O
HeLa
  IC50: > 50 µM
PANC-1
  IC50: > 50 µM
MCF7
  IC50: > 50 µM
SW1990
  IC50: > 50 µM
HCT-116
  IC50: > 50 µM

## C=C[C@]1(C)C=C2C(=O)C(O)=C3[C@](C)(COC(=O)C(C)C)[C@H](OC(C)=O)C[C@H]4C[C@@]34[C@@]2(O)CC1
HeLa
  IC50: 0.7 µM
PANC-1
  IC50: 1.8 µM
MCF7
  IC50: 1.4 µM
SW1990
  IC50: 0.3 µM
HCT-116
  IC50: 1 µM

## C=C[C@]1(C)C=C2C(=O)[C@H](O)[C@H]3[C@](C)(COC(=O)C(C)C)[C@H](OC(C)=O)C[C@H]4C[C@]43[C@@]2(O)CC1
HeLa
  IC50: > 50 µM
PANC-1
  IC50: 26.6 µM
MCF7
  IC50: > 50 µM
SW1990
  IC50: > 50 µM
HCT-116
  IC50: > 50 µM

## C=C[C@]1(C)C=C2C(=O)C(O)=C3[C@](C)(COC(C)=O)[C@H](OC(C)=O)C[C@H]4C[C@@]34[C@@]2(O)CC1
HeLa
  IC50: 3.1 µM
PANC-1
  IC50: 6 µM
MCF7
  IC50: 4.1 µM
SW1990
  IC50: 2.4 µM
HCT-116
  IC50: 2.2 µM

## C=C[C@]1(C)C=C2C(=O)C(O)=C3[C@@]4(OC)[C@H](C[C@H](OC(C)=O)[C@]3(C)COC(=O)C(C)C)C[C@]24CC1
HeLa
  IC50: 6 µM
RAW264.7
  inhibition: Active
PANC-1
  IC50: 7 µM
MCF7
  IC50: 8.3 µM
SW1990
  IC50: 8 µM
HCT-116
  IC50: 8.4 µM
HEK293
  inhibition: Dose-dependent effect

## C=C[C@]1(C)C=C2C(=O)C(O)=C3[C@](C)(COC(=O)CC)[C@H](OC(C)=O)C[C@H]4C[C@@]34[C@@]2(O)CC1
HeLa
  IC50: 2.6 µM
PANC-1
  IC50: 3.6 µM
MCF7
  IC50: 2.9 µM
SW1990
  IC50: 1 µM
HCT-116
  IC50: 1.9 µM

## C=C[C@]1(C)C=C2C(=O)C(O)=C3[C@@]4(O)[C@H](C[C@H](OC(C)=O)[C@]3(C)COC(=O)C(C)C)C[C@]24CC1
HeLa
  IC50: 13.1 µM
RAW264.7
  inhibition: Active
PANC-1
  IC50: 12.1 µM
MCF7
  IC50: 10.7 µM
SW1990
  IC50: 10.3 µM
HCT-116
  IC50: 12.6 µM
HEK293
  inhibition: Dose-dependent effect

## C=C[C@]1(C)C=C2C(=O)C(O)=C3[C@](C)(COC(=O)C(C)C)[C@H](O)C[C@H]4C[C@@]34[C@@]2(O)CC1
HeLa
  IC50: 1.2 µM
PANC-1
  IC50: 2.1 µM
MCF7
  IC50: 1.1 µM
SW1990
  IC50: 0.8 µM
HCT-116
  IC50: 1.3 µM
